Measured values as given in PubChem BioAssay AID2060509 (Molecular Pharmacology Branch, DTP, NCI, 2025).

Test system: 485176-168-R4-J1-PDC spheroids with HUVEC/MSC, viability
Assay: Anticancer human tumor 485176-168-R4-J1-PDC patient-derived pancreatic adenocarcinoma cell line growth inhibition [GQUAD]
Settings: for IC50: curve of first compound; for viability, T/C: stronger effect = lower value
Outline: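 Tumor cells were grown as complex spheroids with HUVEC endothelial cells and mesenchymal stem cells as stroma. G-quadruplex stabilizers were combined with targeted agents over half-log dilutions from near the clinical Cmax, or from 10 microM.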

[1] = second compound 0.0316 µM, first compound 0.0316 µM
[2] = second compound 0.0316 µM, first compound 0.1 µM
[3] = second compound 0.0316 µM, first compound 0.316 µM
[4] = second compound 0.0316 µM, first compound 1 µM
[5] = second compound 0.0316 µM, first compound 3.16 µM
[6] = second compound 0.0316 µM, first compound 10 µM
[7] = second compound 0.1 µM, first compound 0.0316 µM
[8] = second compound 0.1 µM, first compound 0.1 µM
[9] = second compound 0.1 µM, first compound 0.316 µM
[10] = second compound 0.1 µM, first compound 1 µM
[11] = second compound 0.1 µM, first compound 3.16 µM
[12] = second compound 0.1 µM, first compound 10 µM
[13] = second compound 0.316 µM, first compound 0.0316 µM
[14] = second compound 0.316 µM, first compound 0.1 µM
[15] = second compound 0.316 µM, first compound 0.316 µM
[16] = second compound 0.316 µM, first compound 1 µM
[17] = second compound 0.316 µM, first compound 3.16 µM
[18] = second compound 0.316 µM, first compound 10 µM
[19] = second compound 1 µM, first compound 0.0316 µM
[20] = second compound 1 µM, first compound 0.1 µM
[21] = second compound 1 µM, first compound 0.316 µM
[22] = second compound 1 µM, first compound 1 µM
[23] = second compound 1 µM, first compound 3.16 µM
[24] = second compound 1 µM, first compound 10 µM
[25] = second compound 3.16 µM, first compound 0.0316 µM
[26] = second compound 3.16 µM, first compound 0.1 µM
[27] = second compound 3.16 µM, first compound 0.316 µM
[28] = second compound 3.16 µM, first compound 1 µM
[29] = second compound 3.16 µM, first compound 3.16 µM
[30] = second compound 3.16 µM, first compound 10 µM
[31] = second compound 10 µM, first compound 0.0316 µM
[32] = second compound 10 µM, first compound 0.1 µM
[33] = second compound 10 µM, first compound 0.316 µM
[34] = second compound 10 µM, first compound 1 µM
[35] = second compound 10 µM, first compound 3.16 µM
[36] = second compound 10 µM, first compound 10 µM
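Further: spheroids exposed to compounds for seven days before readout.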
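Wherever viability, T/C is given: percent viability relative to DMSO vehicle control wells as 100%.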

COc1cccc2c1C(=O)c1c(O)c3c(c(O)c1C2=O)CC(O)(C(=O)CO)CC3OC1CC(N)C(O)C(C)O1 (stereo unspecified) + Cc1cnc(CNC(=O)c2c(=O)c3ccc(N4CCCN(C)CC4)nc3n3c2sc2ccccc23)cn1
IC50 (second compound 0.0316 µM): 398 nM
IC50 (second compound 0.1 µM): 141 nM
IC50 (second compound 0.316 µM): 196 nM
IC50 (second compound 1 µM): < 31.6 nM
IC50 (second compound 3.16 µM): < 31.6 nM
IC50 (second compound 10 µM): < 31.6 nM
viability, T/C [1]: 81.3%
viability, T/C [2]: 60.9%
viability, T/C [3]: 60.5%
viability, T/C [4]: 13.4%
viability, T/C [5]: 3.49%
viability, T/C [6]: 0.42%
viability, T/C [7]: 80.5%
viability, T/C [8]: 55.9%
viability, T/C [9]: 34.5%
viability, T/C [10]: 20.1%
viability, T/C [11]: 1.67%
viability, T/C [12]: 0.88%
viability, T/C [13]: 55.8%
viability, T/C [14]: 50.8%
viability, T/C [15]: 48.7%
viability, T/C [16]: 18.6%
viability, T/C [17]: 6.39%
viability, T/C [18]: 0.16%
viability, T/C [19]: 54.5%
viability, T/C [20]: 41%
viability, T/C [21]: 51.7%
viability, T/C [22]: 28.2%
viability, T/C [23]: 8.43%
viability, T/C [24]: 0.95%
viability, T/C [25]: 41.6%
viability, T/C [26]: 40.2%
viability, T/C [27]: 44.5%
viability, T/C [28]: 28.1%
viability, T/C [29]: 7.56%
viability, T/C [30]: 0.84%
viability, T/C [31]: 49.8%
viability, T/C [32]: 39.7%
viability, T/C [33]: 44.6%
viability, T/C [34]: 30.4%
viability, T/C [35]: 7.78%
viability, T/C [36]: 1.08%

Nc1ccn(C2OC(CO)C(O)C2(F)F)c(=O)n1 (stereo unspecified) + Cc1cnc(CNC(=O)c2c(=O)c3ccc(N4CCCN(C)CC4)nc3n3c2sc2ccccc23)cn1
IC50 (second compound 0.0316 µM): 42.2 nM
IC50 (second compound 0.1 µM): 33.1 nM
IC50 (second compound 0.316 µM): 42.6 nM
IC50 (second compound 1 µM): < 31.6 nM
IC50 (second compound 3.16 µM): < 31.6 nM
IC50 (second compound 10 µM): < 31.6 nM
viability, T/C [1]: 60.9%
viability, T/C [2]: 17.7%
viability, T/C [3]: 11%
viability, T/C [4]: 8.82%
viability, T/C [5]: 8.83%
viability, T/C [6]: 9.73%
viability, T/C [7]: 51.1%
viability, T/C [8]: 24.9%
viability, T/C [9]: 7.73%
viability, T/C [10]: 11.8%
viability, T/C [11]: 11.2%
viability, T/C [12]: 12.9%
viability, T/C [13]: 60.3%
viability, T/C [14]: 22%
viability, T/C [15]: 10.2%
viability, T/C [16]: 10.3%
viability, T/C [17]: 11.5%
viability, T/C [18]: 11.2%
viability, T/C [19]: 40.8%
viability, T/C [20]: 19.7%
viability, T/C [21]: 11.4%
viability, T/C [22]: 11.6%
viability, T/C [23]: 12.7%
viability, T/C [24]: 11.7%
viability, T/C [25]: 43.6%
viability, T/C [26]: 20.3%
viability, T/C [27]: 11.1%
viability, T/C [28]: 9.17%
viability, T/C [29]: 12.5%
viability, T/C [30]: 12.6%
viability, T/C [31]: 37%
viability, T/C [32]: 24.6%
viability, T/C [33]: 10.4%
viability, T/C [34]: 10.4%
viability, T/C [35]: 11.1%
viability, T/C [36]: 9.2%

O=c1[nH]cc(F)c(=O)[nH]1 + Cc1cnc(CNC(=O)c2c(=O)c3ccc(N4CCCN(C)CC4)nc3n3c2sc2ccccc23)cn1
IC50 (second compound 0.0316 µM): 847 nM
IC50 (second compound 0.1 µM): 272 nM
IC50 (second compound 0.316 µM): 248 nM
IC50 (second compound 1 µM): 202 nM
IC50 (second compound 3.16 µM): < 31.6 nM
IC50 (second compound 10 µM): < 31.6 nM
viability, T/C [1]: 84.7%
viability, T/C [2]: 77.4%
viability, T/C [3]: 66.1%
viability, T/C [4]: 45.9%
viability, T/C [5]: 43.5%
viability, T/C [6]: 43.6%
viability, T/C [7]: 63.3%
viability, T/C [8]: 73.5%
viability, T/C [9]: 47.2%
viability, T/C [10]: 47.1%
viability, T/C [11]: 46.4%
viability, T/C [12]: 43.6%
viability, T/C [13]: 53.8%
viability, T/C [14]: 66.1%
viability, T/C [15]: 47.4%
viability, T/C [16]: 45.3%
viability, T/C [17]: 35.1%
viability, T/C [18]: 45.7%
viability, T/C [19]: 50.5%
viability, T/C [20]: 54.7%
viability, T/C [21]: 48.3%
viability, T/C [22]: 38.2%
viability, T/C [23]: 36.4%
viability, T/C [24]: 41%
viability, T/C [25]: 40.6%
viability, T/C [26]: 44.1%
viability, T/C [27]: 37.2%
viability, T/C [28]: 32.8%
viability, T/C [29]: 34.5%
viability, T/C [30]: 31.3%
viability, T/C [31]: 41.5%
viability, T/C [32]: 45%
viability, T/C [33]: 33.5%
viability, T/C [34]: 30.3%
viability, T/C [35]: 34.4%
viability, T/C [36]: 34.3%
